{
  "source": "patent US7265116B2",
  "about": "“Aryl and heteroaryl substituted tetrahydroisoquinolines and use thereof” (ARM Technology, Inc., priority 1999, dated 2007)",
  "key": {"[1]": {"system": "dopamine transporter protein over the norepinephrine transporter protein", "conditions": "selectivity for dopamine transporter over norepinephrine transporter; cited from earlier work"}, "[2]": {"conditions": "cited from earlier work"}},
  "data": [
    {"smiles": "CN1Cc2cc(-c3ccoc3)ccc2C(c2ccccc2)C1", "note": "(stereo not drawn)", "values": [
      {"measurement": "melting point", "result": "188 to 189 °C (dec.)"}
    ]},
    {"smiles": "COC(=O)C(c1ccccc1)C1CCCCN1", "note": "(stereo not drawn) [Methylphenidate]", "values": [
      {"measurement": "DAT/NET Ki ratio", "setting": "[1]", "result": 0.1}
    ]},
    {"smiles": "CN1Cc2c(N)cccc2C(c2ccccc2)C1", "note": "(stereo not drawn) [Nomofensine]", "values": [
      {"measurement": "side effect of long term administration", "setting": "[2]", "result": "fatal immune hemolytic anemia"}
    ]}
  ]
}
